Experiment [1] relates to Viral SN123 infected CEM cells.
Protocol: Purpose: To determine IC50 CC50 for compounds:
Media A [1% DMSO] (100 microliters DMSO+9.9 ml media A)
CEM cells @ [1×10^4] cells/ml (4 plate=40 ml) (6 plate=60 ml)
(need 70 microliters of each)
A-D at [10 mM] in 100% DMSO
4 or 6 u-bottom 96-well plates
4 flat bottom 96-well plates for dilutions
8-10 boxes of sterile costar tips
Approximately 10 reagent trays
1000 cells/well=1×10^4 cells/ml=1000 cells/100 microliters 200 microliters=total volume in a well
Cell Preparation and Plating of Cells, Media A and Media A (1% DMSO)
a. Number a 96-well tissue culture plate for each compound tested, one for a control plate, and one for the control compound.
b. Count cells on hemacytometer and resuspend them in 40 ml or 80 ml of Media A at a concentration of [1×10^4]0 cells/ml.
Counting Cells on a Hemacytomer:
Label two 1.8 ml nuc tubes 1 and 2.
Put 0.5 ml of well mixed CEM cells (in growth phase) in tube 1.
Put 50 micoliters PBS and 40 microliters of trypan blue into tube 2.
Mix up the cells in tube 1 then remove 10 microliters of cells and put them into tube 2.
Mix well in tube 2, then remove 10 microliters of the stained cells and put them on the hemacytometer.
Count the number of cells in the center square of the hemacytometer with the microscope set on 10×.
The concentration of the stock CEM's in cells/ml is as follows:
Cells counted×1×10^5=Concentration of CEM's in [cells/ml].
c. Add 200 microliters Media A to: A1 of places 2-6. These are Blanks. A4-H4 of plate 1. These are Blanks.
d. Add 5 microlicers Media A to all wells of Rows A-D of plates 2-6 except A1 (the top half of each plate).
e. Add 50 microliters of Media A to wells A1-D3 of Plate 1 (the top half of the plate).
f. Add 50 microliters Media A[l% DMSO] to all wells of Columns 1-3 of plate 1.
This puts 1000 cells/well.
h. Put plates in an incubator while doing drug dilutions.
Preparation Control and Test Drugs
(1) Put 60 microliters of DMSO into all wells of Columns 2-12, Rows A-E.
(3) Put 70 microliters of A [10 mM] at 100% DMSO into well B1.
(4) Put 70 microliters of B [10 mM] at 100% DMSO into well C1.
(5) Put 70 microliters of C [10 mM] at 100% DMSO into well D1.
(6) Put 70 microliters of D [10 mM] at 100% DMSO into well E1.
Change tips before each dilution.
(1) In rows A-E of another plate make a row for the first 1:10 dilution to correspond to each compound's 100% DMSO row.
A into Row B for the first 1:10 dilution.
B into Row C for the first 1:10 dilution.
C into Row D for the first 1:10 dilution.
D into Row E for the first 1:10 dilution.
(2) Put 180 microliters of media A into all wells of rows A-E corresponding to the 100% DMSO rows. 2.5 ml needed per row.
(3) Remove 20 microliters from all wells of each row of the 100% DMSO rows and transfer it to the corresponding 1:10 row.
(1) Make a plate for every 3 compounds to be tested.
Use 20 ml of media A per plate.
(3) Transfer 25 microliters of each compound from the row in the 1:10 dilution to the corresponding two rows on the 1:100 dilution plate changing tips before each transfer.
Addition of Viral SN123 to Plates
a. Thaw Sn123 in 37° C. water bath for approximately 10 minutes.
b. Dilute Sn123 1:16 by adding 1 ml of Sn123 to 15 ml of media A.
c. Add 50 microliters of Sn123 [1:16] to wells E1-H12 of plates 2-6 and to wells E1-H3 of plate 1.
Addition of Drugs to Plates
a. Add 50 microliters of the control and test drugs from the rows in the 1:100 dilution plates to the appropriate rows in the final plates (changing tips before each transfer). One row in the 1:100 plate will do 4 rows in the final plate. Leave A1 blank.
b. Incubate all plates 7 days at 37° C. 5% CO2.
c. Do Xtt protocol on day 7 as follows:
d. Preparation of Xtt/PMS Solution: (4 plate=20 ml) (6 plate=30 ml)
100 microliters [100 mM] PMS+4.9 ml PBS=PMS at [2 mM]
(2) Heat 500 ml of H2O in microwave for 5 minutes on high.
(3) Put 20 or 30 ml of phenol red RPMI in a 50 ml centrifuge tube.
(4) Put the RPMI in the beaker of hot water.
(5) Add 20 or 30 mg of XTT to the warmed up RPMI.
Experiment [2] addresses HIV-1 protease (Human immunodeficiency virus type 1 group M subtype B, UniProt P04585). Description: Fluorescence HIV-1 Protease Inhibitor Assay (Pandex). The arrangement: made in house; host or cells: E. coli K12 L507/pHP10D (NRRL B-18560). Type of experiment: biochemical. On the procedure:
A. Preparation of Protease and Gag Fractions
Lyophils of E. coli K12 L507/pHP10D were obtained from the Northern Regional Research Laboratory, Peoria, Ill. 61604, under the accession number NRRL B-18560 (deposited Nov. 14, 1989). The lyophils were decanted into tubes containing 10 ml LB medium (10 g Bacto-tryptone, 5 g Bacto-yeast extract, and 10 g aqueous sodium chloride per liter; the pH was adjusted to 7.5 and incubated at 32° C. overnight).
A small portion of the overnight culture was placed on LB-agar (LB medium with 15 g/L Bacto-agar) plates containing 12.5 micrograms/ml tetracycline in a manner so as to obtain a single colony isolate of E. coli K12 L507/pHP10D. The single colony obtained was inoculated into 10 ml of LB medium containing 12.5 micrograms/ml tetracycline and incubated overnight at 32° C. with vigorous shaking. The 10 ml overnight culture was inoculated into LB medium containing 12.5 micrograms/ml tetracycline and incubated at 32° C. with vigorous shaking until the culture reached mid-log phase. […]
3. Preparation of Protease Fraction
A culture of E. coli K12 L507/pHP10D was grown to mid-log phase at 32° C. in LB media containing 12.5 micrograms/ml tetracycline. The cultivation temperature was quickly elevated to 40° C. to induce gene expression, and the cells were allowed to grow for 2.5 hours at this temperature before the culture was quickly chilled on ice. The cells were centrifuged and the cell pellet was resuspended in 20 ml of 50 mmol MES buffer (pH 6.0) containing 1 mmol EDTA, 1 mmol DTT, 1 mmol PMSF and 10% glycerol (“Buffer A”). Cells were lysed by sonication using a Fischer Model 300 Dismembrator and a microtip probe. Following centrifugation at 27,000×g, the supernatant was diluted to a total volume of 60 ml with Buffer A and loaded onto a 2.0×19 cm QAE-Sepharose column (1 ml/min, 4° C.), that had been equilibrated in Buffer A. The column was washed isocratically for 180 min and then eluted with a gradient eluent of […] aqueous sodium chloride in Buffer A over 120 min. Enzymatic activity was measured by HPLC using the synthetic peptide Ser-Gln-Asn-Tyr-Pro-Ile-Val as described in Margolin et al., Biochem. Biophys. Res. Commun., 167, 554-560 (1990); the production of the p1 peptide (Ser-Gln-Asn-Tyr) was measured.
The active fractions were combined, adjusted to […] 1.2M in ammonium sulfate, and applied to a 2.0×18 cm hexyl agarose column that had been equilibrated in Buffer A containing 1.2M ammonium sulfate. The sample was loaded at a flow rate of 1 ml/min at 4° C., washed with the equilibration buffer for 240 min (1 ml/min) and then eluted using a reverse linear gradient of 1.2-0M ammonium sulfate in Buffer A for 120 min at the same flow rate. The column was then washed isocratically in Buffer A for 120 min.
The active fractions were combined, concentrated to 10 ml using an Amicon stirred cell with a YM-10 membrane and then applied to a MonoS cation exchange column (1.0×10 cm) that had been equilibrated in Buffer A. The sample was loaded at a flow rate of 1 ml/min at 25° C. After washing isocratically for 30 min, the protease was eluted using a linear gradient of 0-0.45M aqueous sodium chloride in Buffer A over 40 min. The column was washed isocratically in Buffer A containing 0.45M aqueous sodium chloride for 30 minutes.
The active fractions were combined and concentrated to 200 microliters using an Amicon stirred cell and a YM-10 membrane and then the protease was applied to a Superose 6 size exclusion column equilibrated in Buffer A containing 0.1M aqueous sodium chloride.

[3] abbreviates: value as run, 35B value of the same run in footnote or parentheses, read-out: Pandex IC50 ng/ml (converted).
Setting [4] is: value as run, 35B value of the same run in footnote or parentheses.
Where [5] appears, read: normalized to positive control (=1.0), * = a calculated average, read-out: Fluorescence Assay IC50 in ng/mL (converted).

Where a name gives a salt, the structure may show the parent alone. Read-outs that look alike come from different tables or passages of the source. Marks after values point to notes of the source that are not given here.

By IC90 is commonly meant the concentration at which the effect reaches the 90% level. Turning to `Cc1c(O)cccc1C(=O)N[C@@H](CSc1ccccc1)[C@H](O)CN1C[C@H]2CCCC[C@H]2C[C@H]1C(=O)NC(C)(C)C` (relative stereo) [Example 75, [3S-(3R*, 4aR*, 8aR*, 2′S*, 3′S*)]-2-[2′-Hydroxy-3′-phenylthiomethyl-4′-aza-5′-oxo-5′-(2″-methyl-3″-hydroxyphenyl)pentyl]-decahydroisoquinoline-3-N-t-butyl carboxamide methanesulfonic acid salt], the IC50 in experiment [1] (Human immunodeficiency virus 1, CCRF-CEM, read-out: Whole cell IC50 nM, CEM cells, values in parentheses are 35B in same assay) was 14.5 nM. Further, in experiment [1] (Human immunodeficiency virus 1, CCRF-CEM, read-out: Whole cell IC90 nM, CEM cells, values in parentheses are 35B in same assay), the IC90 turned out to be 56.1 nM.

For `CC(C)(C)NC(=O)[C@@H]1C[C@@H]2CCCC[C@@H]2CN1C[C@@H](O)[C@H](Cc1ccccc1)NC(=O)c1ccsc1` (relative stereo) [Example 87, [3S-(3R*, 4aR*, 8aR*, 2′S*, 3′R*)]-2-[2′-Hydroxy-3′-phenylmethyl-4′-aza-5′-oxo-5′-(thieno-3″-yl)pentyl]-decahydroisoquinoline-3-N-t-butyl carboxamide], the “Pandex IC50 (given as % at concentration)” value in experiment [2] (at 1,000 ng/ml) came to 25%.

Take `CC(C)(C)NC(=O)[C@@H]1C[C@@H]2CCCC[C@@H]2CN1C[C@@H](O)[C@H](Cc1ccccc1)NC(=O)C1CCS(=O)(=O)C1` (relative stereo) [Example 88, [3S-(3R*, 4aR*, 8aR*, 2′S*, 3′R*)]-2-[2′-Hydroxy-3′-phenylmethyl-4′-aza-5′-oxo-5′-(tetrahydrothieno-3″-yl-1″,1″-dioxide)pentyl]-decahydroisoquinoline-3-N-t-butyl carboxamide]: the “Pandex % at 20 ng/ml” value in experiment [2] (at 20 ng/ml) was found to be 28%.

With `Cc1ccsc1C(=O)N[C@@H](CSc1ccccc1)[C@H](O)CN1C[C@H]2CCCC[C@H]2C[C@H]1C(=O)NC(C)(C)C` (relative stereo) [Example 90, [3S-(3R*, 4aR*, 8aR*, 2′S*, 3′S*)]-2-[2′-Hydroxy-3′-phenylthiomethyl-4′-aza-5′-oxo-5′-(3″-methyl-thieno-2″-yl)pentyl]-decahydroisoquinoline-3-N-t-butyl carboxamide], in experiment [2] (setting [3]), the IC50 is 48.4 nM.

On to `CC(C)(C)NC(=O)[C@@H]1C[C@@H]2CCCC[C@@H]2CN1C[C@@H](O)[C@H](CSc1ccccc1)NC(=O)[C@H]1CS(=O)(=O)CN1` (relative stereo) [[3S-(3R*, 4aR*, 8aR*, 2′S*, 3′S*, 4″S)]-2-[2′-Hydroxy-3′-phenylthiomethyl-4′-aza-5′-oxo-5′-(thiazolino-4″-yl-1″,1″-dioxide)pentyl]-decahydroisoquinoline-3-N-t-butyl carboxamide], for which, in experiment [2] (setting [4]), the “Pandex IC50” value came out at 0.244 µg/mL.

As to `CC(C)(C)NC(=O)C1CC2CCCCC2CN1CC(O)C(Cc1ccccc1)NC(=O)c1cc(O)cc(O)c1Cl` (stereo not drawn) [Example 8, [3S-(3R*,4aR*,8aR*,2′S*,3′R*)]-2-[2′-Hydroxy-3′-phenylmethyl-4′-aza-5′-oxo-5′-(2″-chloro-3″,5″-dihydroxyphenyl)pentyl] decahydroisoquinoline-3-N-t-butylcarboxamide], the IC50 is 28.7 nM in experiment [2] (setting [5]) and 10.1 nM in experiment [2] (setting [3]).

Consider `Cc1c(N)cc(N)cc1C(=O)NC(Cc1ccccc1)C(O)CN1CC2CCCCC2CC1C(=O)NC(C)(C)C` (stereo not drawn) [Example 9, [3S-(3R*,4aR*,8aR*,2′S*,3′R*)]-2-[2′-Hydroxy-3′-phenylmethyl-4′-aza-5′-oxo-5′-(2″-methyl-3″,5″-diaminophenyl)pentyl] decahydroisoquinoline-3N-t-butylcarboxamide], for which the IC50 was 30.9 nM in experiment [2] (setting [5]) and 95.9 nM in experiment [2] (setting [3]).

As for `COc1cccc(C(=O)NC(Cc2ccccc2)C(O)CN2CC3CCCCC3CC2C(=O)NC(C)(C)C)c1C` (stereo not drawn) [Example 13, [3S-(3R*,4aR*,8aR*,2′S*,3′R*)]-2-[2′-Hydroxy-3′-phenylmethyl-4′-aza-5′-oxo-5′-(2″-methyl-3″-methoxyphenyl)pentyl] decahydroisoquinoline-3-N-t-butylcarboxamide], in experiment [2] (setting [5]), the IC50 was 629 nM.

`Cc1c(O)cccc1C(=O)NC(Cc1ccccc1)C(O)CN1CC2CCCCC2CC1C(=O)NC(C)(C)C` (stereo not drawn) [Example 28, [3S-(3R*,4aR*,8aR*,2′S*,3′R*)]-2-[2′-Hydroxy-3′-phenylmethyl-4′-aza-5′-oxo-5′-(2″-methyl-3″-hydroxyphenyl)pentyl] decahydroisoquinoline-3-N-t-butylcarboxamide monomesylplate salt]: in experiment [1] (read-out: Whole cell IC50 nM, CEM cells, tested as the mesylate salt), the IC50 came out at 35.7 nM. In experiment [1] (read-out: Whole cell IC90 nM, CEM cells, tested as the mesylate salt), the IC90 is 91.8 nM.

Regarding `CC(C)(C)NC(=O)C1CC2CCCCC2CN1CC(O)C(Cc1ccccc1)NC(=O)c1cccc2c1CCCN2` (stereo not drawn) [Example 37, [3S-(3R*,4aR*,8aR*,2′S*,3′S*)]-2-[2′-Hydroxy-3′-phenylmethyl-4′-aza-5′-oxo-5′-[(1″,2″,3″,4″-tetrahydroquinolin-5″-yl)]pentyl] decahydroisoquinoline-3-N-y-butylcarboxamide], the values for the IC50 in experiment [2] (setting [5]) and in experiment [2] (setting [3]) were 49 nM and 58.8 nM, respectively.

With `Cc1ccc(O)c(C)c1C(=O)NC(CSc1ccccc1)C(O)CN1CC2CCCCC2CC1C(=O)NC(C)(C)C` (stereo not drawn) [Example 39, [3S-(3R*,4aR*,8aR*,2′S*,3′S*)]-2-[2′-Hydroxy-3′-phenylthiomethyl-4′-aza-5′-oxo-5′-[2″,6″-dimethyl-3″-hydroxyphenyl)pentyl] decahydroisoquinoline-3-N-t-butylcarboxamide], the values for the IC50 in experiment [2] (setting [5]) and in experiment [2] (setting [3]) were 9.11 nM and 13.7 nM, respectively.

For `Cc1c(O)cccc1C(=O)N[C@@H](Cc1ccccc1)[C@H](O)Cc1ccccc1C(=O)NC(C)(C)C` [Example 40, [2R′-(2R′*,3′S*)]-N-t-Butyl-2-[2′-hydroxy-3′-phenylmethyl-4′-aza-5′-oxo-5′-(2″methyl-3″-hydroxyphenyl)pentyl]benzamide], the IC50 in experiment [2] (setting [5]) is 21.1 nM.

Consider `CC(C)(C)NC(=O)c1ccccc1CC(O)C(CSc1ccc2ccccc2c1)NC(=O)c1cccc(Cl)c1Cl` (stereo not drawn) [Example 54, [2′R-(2′R*,3′S*)]-N-t-Butyl-2-[2′-hydroxy-3′-naphth-2-ylthiomethyl-4′-aza-5′-oxo-5′-(2″,2″-dichlorophenyl)pentyl] benzamide], for which the IC50 in experiment [2] (setting [5]) was 129 nM.

For the compound `CC(C)(C)NC(=O)c1ccccc1C[C@@H](O)[C@H](Cc1ccccc1)NC(=O)c1cccc2c1CCNC2` [Example 60, [2′R-(2′R*,3′S*)]-N-t-Butyl-2-[2′-hydroxy-3′-phenylmethyl-4′-aza-5′-oxo-5′-(1″,2″,3″,4″-tetrahydroisoquinolin-5″-yl)pentyl] benzamide], the IC50 in experiment [2] (setting [5]) is 801 nM.

Turning to “[2′R-(2′R*,3′S*)]-N-t-Butyl-2-[2′-hydroxy-3′-naphth-2-ylthiomethyl-4′-aza-5′-oxo-5′-(1″-N(methyl)indol-4″-yl)pentyl] benzamide [Example 69]”, the “Fluorescence Assay IC35” value in experiment [2] (concentration of the inhibitor not increased above 15 μg/mL) is “IC35(15000)** ng/mL”.

With “[3S-(3R*,4aR*,8aR*,2′S*,3′S*)]-2-[2′-Hydroxy-3′-phenylthiomethyl-4′-aza-5′-oxo-5′-[6″-methyl-(1″,2″,3″,4″-tetrahydroquinolin-5″-yl)]pentyl] decahydroisoquinoline-3-N-t-butylcarboxamide [Example 38]”, the “Fluorescence Assay IC50” value in experiment [2] (normalized to positive control (=1.0), * = a calculated average) is 0.0152 µg/mL. In addition, the “Pandex IC50 ng/ml” value in experiment [2] (setting [4]) is 35^e ng/ml.

(Values after patent publication US20030216569A1, “Method of making HIV protease inhibitors” (priority 1993, published 2003).)
